# According to patent US8765940B2 (priority 2009, dated 2014):
# Biological target: PI3Kδ (Homo sapiens (Human), UniProt O00329)
# Type: biochemical
# Settings: PI3Kδ Alphascreen assay
# Experimental: A PI3K Alphascreen® assay (PerkinElmer, Waltham, Mass.) was used to measure the activity of a panel of four phosphoinositide 3-kinases: PI3Kα, PI3Kβ, PI3Kγ, and PI3Kδ. Enzyme reaction buffer was prepared using sterile water (Baxter, Deerfield, Ill.) and 50 mM Tris HCl pH 7, 14 mM MgCl2, 2 mM sodium cholate, and 100 mM NaCl. 2 mM DTT was added fresh the day of the experiment. The Alphascreen buffer was made using sterile water and 10 mM Tris HCl pH 7.5, 150 mM NaCl, 0.10% Tween 20, and 30 mM EDTA. 1 mM DTT was added fresh the day of the experiment. Compound source plates used for this assay were 384-well Greiner clear polypropylene plates containing test compounds at 5 mM and diluted 1:2 over 22 concentrations. Columns 23 and 24 contained only DMSO as these wells comprised the positive and negative controls, respectively. Source plates were replicated by transferring 0.5 uL per well into 384-well Optiplates (PerkinElmer, Waltham, Mass.).
# Each PI3K isoform was diluted in enzyme reaction buffer to 2× working stocks. PI3Kα was diluted to 1.6 nM, PI3Kβ was diluted to 0.8 nM, PI3Kγ was diluted to 15 nM, and PI3Kδ was diluted to 1.6 nM. PI(4,5)P2 (Echelon Biosciences, Salt Lake City, Utah) was diluted to 10 μM and ATP was diluted to 20 μM. This 2× stock was used in the assays for PI3Kα and PI3Kβ. For assay of PI3Kγ and PI3Kδ, PI(4,5)P2 was diluted to 10 μM and ATP was diluted to 8 μM to prepare a similar 2× working stock. Alphascreen reaction solutions were made using beads from the anti-GST Alphascreen kit (PerkinElmer, Waltham, Mass.). Two 4× working stocks of the Alphascreen reagents were made in Alphascreen reaction buffer. In one stock, biotinylated-IP4 (Echelon Biosciences, Salt Lake City, Utah) was diluted to 40 nM and streptavadin-donor beads were diluted to 80 μg/mL. In the second stock, PIP3-binding protein (Echelon Biosciences, Salt Lake City, Utah) was diluted to 40 nM and anti-GST-acceptor beads were diluted to 80 μg/mL.
# Using a 384-well Multidrop (Titertek, Huntsville, Ala.), 10 μL/well of 2× enzyme stock was added to columns 1-24 of the assay plates for each isoform. 10 μL/well of the appropriate substrate 2× stock (containing 20 μM ATP for the PI3Kα and β assays and containing 8 μM ATP for the PI3Kγ and δ assays) was then added to Columns 1-24 of all plates. Plates were then incubated at room temperature for 20 minutes. In the dark, 10 μL/well of the donor bead solution was added to columns 1-24 of the plates to quench the enzyme reaction. The plates were incubated at room temperature for 30 minutes. Still in the dark, 10 μL/well of the acceptor bead solution was added to columns 1-24 of the plates. The plates were then incubated in the dark for 1.5 hours. The plates were read on an Envision multimode Plate Reader (PerkinElmer, Waltham, Mass.) using a 680 nm excitation filter and a 520-620 nm emission filter.
# PI3Kδ, sequence (O00329 whole entry): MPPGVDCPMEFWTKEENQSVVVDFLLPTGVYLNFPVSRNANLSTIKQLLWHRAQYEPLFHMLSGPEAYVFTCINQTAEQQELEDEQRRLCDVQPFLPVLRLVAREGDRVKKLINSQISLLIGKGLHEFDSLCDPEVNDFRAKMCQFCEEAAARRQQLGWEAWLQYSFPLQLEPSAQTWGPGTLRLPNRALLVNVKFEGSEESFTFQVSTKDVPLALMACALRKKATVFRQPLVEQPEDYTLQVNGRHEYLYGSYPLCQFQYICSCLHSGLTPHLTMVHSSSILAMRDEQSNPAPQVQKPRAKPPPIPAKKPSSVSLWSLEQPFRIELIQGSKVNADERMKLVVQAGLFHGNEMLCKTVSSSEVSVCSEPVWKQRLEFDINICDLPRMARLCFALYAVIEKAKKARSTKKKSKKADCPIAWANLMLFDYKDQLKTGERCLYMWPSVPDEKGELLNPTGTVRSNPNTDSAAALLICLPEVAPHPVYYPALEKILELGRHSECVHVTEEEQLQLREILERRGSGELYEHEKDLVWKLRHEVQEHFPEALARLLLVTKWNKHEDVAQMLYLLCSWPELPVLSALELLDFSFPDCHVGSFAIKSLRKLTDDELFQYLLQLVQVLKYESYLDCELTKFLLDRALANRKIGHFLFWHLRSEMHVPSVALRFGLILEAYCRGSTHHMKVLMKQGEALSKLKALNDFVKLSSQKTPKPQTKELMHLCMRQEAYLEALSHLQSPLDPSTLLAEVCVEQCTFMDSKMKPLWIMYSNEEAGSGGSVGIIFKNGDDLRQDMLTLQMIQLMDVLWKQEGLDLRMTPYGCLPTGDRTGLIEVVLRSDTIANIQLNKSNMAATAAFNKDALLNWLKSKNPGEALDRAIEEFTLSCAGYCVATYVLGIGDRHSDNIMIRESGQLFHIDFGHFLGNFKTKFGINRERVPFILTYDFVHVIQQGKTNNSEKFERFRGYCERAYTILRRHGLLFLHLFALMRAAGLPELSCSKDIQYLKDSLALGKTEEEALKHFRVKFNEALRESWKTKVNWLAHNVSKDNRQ
# PI3Kδ, sequence (P27986 whole entry partner): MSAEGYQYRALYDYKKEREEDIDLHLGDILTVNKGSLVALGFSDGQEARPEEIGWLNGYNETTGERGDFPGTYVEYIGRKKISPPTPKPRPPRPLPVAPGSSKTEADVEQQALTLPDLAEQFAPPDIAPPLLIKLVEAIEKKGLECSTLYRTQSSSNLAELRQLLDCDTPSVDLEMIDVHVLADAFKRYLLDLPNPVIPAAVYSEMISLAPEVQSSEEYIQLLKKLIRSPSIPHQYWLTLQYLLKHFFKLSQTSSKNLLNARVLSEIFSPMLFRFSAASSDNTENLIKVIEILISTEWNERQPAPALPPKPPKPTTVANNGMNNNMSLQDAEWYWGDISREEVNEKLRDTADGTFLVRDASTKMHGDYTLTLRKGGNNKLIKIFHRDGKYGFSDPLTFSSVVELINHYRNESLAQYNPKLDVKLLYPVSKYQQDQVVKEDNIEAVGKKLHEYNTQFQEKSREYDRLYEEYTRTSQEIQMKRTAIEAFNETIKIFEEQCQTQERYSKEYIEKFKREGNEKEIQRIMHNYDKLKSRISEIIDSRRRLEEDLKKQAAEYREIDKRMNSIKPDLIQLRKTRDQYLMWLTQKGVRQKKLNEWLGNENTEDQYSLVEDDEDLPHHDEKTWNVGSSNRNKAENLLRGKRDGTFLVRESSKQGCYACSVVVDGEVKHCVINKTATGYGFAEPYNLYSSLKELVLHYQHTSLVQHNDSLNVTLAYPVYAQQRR
row,Structure (SMILES),Ki [nM]
1,"Cc1c(-c2cccc(F)c2)nc2ncccc2c1N1CC2(CCOCC2)c2ncc(N3CCOCC3)cc21 [1′-(2-(3-fluorophenyl)-3-methyl-1,8-naphthyridin-4-yl)-6′-(4-morpholinyl)-1′,2,2′,3,5,6-hexahydrospiro[pyran-4,3′-pyrrolo[3,2-b]pyridine]]",27.8
2,"Cc1c(-c2ccccn2)nc2cnccc2c1N1CC2(CCOCC2)c2ncc(N3CCOCC3)cc21 [1′-(3-methyl-2-(2-pyridinyl)-1,7-naphthyridin-4-yl)-6′-(4-morpholinyl)-1′,2,2′,3,5,6-hexahydrospiro[pyran-4,3′-pyrrolo[3,2-b]pyridine]]",30.7
3,"Cc1c(-c2ccccn2)nc2ncccc2c1N1CC2(CCOCC2)c2ncc(N3CCOCC3)cc21 [1′-(3-methyl-2-(2-pyridinyl)-1,8-naphthyridin-4-yl)-6′-(4-morpholinyl)-1′,2,2′,3,5,6-hexahydrospiro[pyran-4,3′-pyrrolo[3,2-b]pyridine]]",65.9
4,"Cc1c(-c2ccccc2)nc2ncccc2c1N1CC2(CCOCC2)c2ncc(N3CCOCC3)cc21 [1′-(3-methyl-2-phenyl-1,8-naphthyridin-4-yl)-6′-(4-morpholinyl)-1′,2,2′,3,5,6-hexahydrospiro[pyran-4,3′-pyrrolo[3,2-b]pyridine]]",22.6
5,"COc1cc(-c2nc3cc(F)cc(F)c3c(N3CC4(CCOCC4)c4ncc(N5CCOCC5)cc43)c2C)ccn1 [1′-(5,7-difluoro-2-(2-methoxy-4-pyridinyl)-3-methyl-4-quinolinyl)-6′-(4-morpholinyl)-1′,2,2′,3,5,6-hexahydrospiro[pyran-4,3′-pyrrolo[3,2-b]pyridine]]",6.89
6,"Cc1c(N2CCNCC2)nc2cc(F)cc(F)c2c1N1CC2(CCOCC2)c2ncc(N3CCOCC3)cc21 [1′-(5,7-difluoro-3-methyl-2-(1-piperazinyl)-4-quinolinyl)-6′-(4-morpholinyl)-1′,2,2′,3,5,6-hexahydrospiro[pyran-4,3′-pyrrolo[3,2-b]pyridine]]",1.37
7,"Cc1c(-c2ccccc2S(C)(=O)=O)nc2cc(F)cc(F)c2c1N1CC2(CCOCC2)c2ncc(N3CCOCC3)cc21 [1′-(5,7-difluoro-3-methyl-2-(2-(methylsulfonyl)phenyl)-4-quinolinyl)-6′-(4-morpholinyl)-1′,2,2′,3,5,6-hexahydrospiro[pyran-4,3′-pyrrolo[3,2-b]pyridine]]",4.51
8,"Cc1c(-c2ccccn2)nc2cc(F)cc(F)c2c1N1CC2(CCOCC2)c2ncc(N3CCOCC3)cc21 [1′-(5,7-difluoro-3-methyl-2-(2-pyridinyl)-4-quinolinyl)-6′-(4-morpholinyl)-1′,2,2′,3,5,6-hexahydrospiro[pyran-4,3′-pyrrolo[3,2-b]pyridine]]",9.44
9,"Cc1c(N2CCN(S(C)(=O)=O)CC2)nc2cc(F)cc(F)c2c1N1CC2(CCOCC2)c2ncc(N3CCOCC3)cc21 [1′-(5,7-difluoro-3-methyl-2-(4-(methylsulfonyl)-1-piperazinyl)-4-quinolinyl)-6′-(4-morpholinyl)-1′,2,2′,3,5,6-hexahydrospiro[pyran-4,3′-pyrrolo[3,2-b]pyridine]]",2.3
10,"Cc1ccc(S(C)(=O)=O)c(-c2nc3cc(F)cc(F)c3c(N3CC4(CCOCC4)c4ncc(N5CCOCC5)cc43)c2C)c1 [1′-(5,7-difluoro-3-methyl-2-(5-methyl-2-(methylsulfonyl)phenyl)-4-quinolinyl)-6′-(4-morpholinyl)-1′,2,2′,3,5,6-hexahydrospiro[pyran-4,3′-pyrrolo[3,2-b]pyridine]]",1.51
11,"Cc1c(-c2ccccn2)nc2cccc(F)c2c1N1CC2(CCOCC2)c2ncc(N3CCOCC3)cc21 [1′-(5-fluoro-3-methyl-2-(2-pyridinyl)-4-quinolinyl)-6′-(4-morpholinyl)-1′,2,2′,3,5,6-hexahydrospiro[pyran-4,3′-pyrrolo[3,2-b]pyridine]]",6.48
12,"Cc1c(-c2ccccn2)nc2cc(F)ccc2c1N1CC2(CCOCC2)c2ncc(-c3cn[nH]c3)cc21 [1′-(7-fluoro-3-methyl-2-(2-pyridinyl)-4-quinolinyl)-6′-(1H-pyrazol-4-yl)-1′,2,2′,3,5,6-hexahydrospiro[pyran-4,3′-pyrrolo[3,2-b]pyridine]]",320
13,"Cc1c(-c2ccccn2)nc2cc(F)ccc2c1N1CC2(CCOCC2)c2nc(N)c(N3CCOCC3)cc21 [1′-(7-fluoro-3-methyl-2-(2-pyridinyl)-4-quinolinyl)-6′-(4-morpholinyl)-1′,2,2′,3,5,6-hexahydrospiro[pyran-4,3′-pyrrolo[3,2-b]pyridin]-5′-amine]",29
14,"Cc1c(-c2ccccn2)nc2cc(F)ccc2c1N1CC2(CCOCC2)c2nc(C#N)c(N3CCOCC3)cc21 [1′-(7-fluoro-3-methyl-2-(2-pyridinyl)-4-quinolinyl)-6′-(4-morpholinyl)-1′,2,2′,3,5,6-hexahydrospiro[pyran-4,3′-pyrrolo[3,2-b]pyridine]-5′-carbonitrile]",219
15,"Cc1nc2c(Cl)cccc2c(N2CC3(CCOCC3)c3ncc(N4CCOCC4)cc32)c1C [1′-(8-chloro-2,3-dimethyl-4-quinolinyl)-6′-(4-morpholinyl)-1′,2,2′,3,5,6-hexahydrospiro[pyran-4,3′-pyrrolo[3,2-b]pyridine]]",2.68
16,"Cc1c(N2CCOC(C)(C)C2)nc2cc(F)cc(F)c2c1N1CC(C)(C)c2ncc(N3CCOCC3)cc21 [2-(2,2-dimethyl-4-morpholinyl)-4-(3,3-dimethyl-6-(4-morpholinyl)-2,3-dihydro-1H-pyrrolo[3,2-b]pyridin-1-yl)-5,7-difluoro-3-methylquinoline]",1.52
17,"Cc1c(-c2cc(F)ccc2F)nc2cc(F)ccc2c1N1CC(C)(C)c2ccc(N3CCOCC3)cc21 [2-(2,5-difluorophenyl)-4-(3,3-dimethyl-6-(4-morpholinyl)-2,3-dihydro-1H-indol-1-yl)-7-fluoro-3-methylquinoline]",20.3
18,"Cc1c(-c2cc(C(F)(F)F)cc(C(F)(F)F)c2)nc2cccc(F)c2c1N1CC(C)(C)c2ccc(N3CCOCC3)cc21 [2-(3,5-bis(trifluoromethyl)phenyl)-4-(3,3-dimethyl-6-(4-morpholinyl)-2,3-dihydro-1H-indol-1-yl)-5-fluoro-3-methylquinoline]",3780
19,"Cc1c(-c2cc(C(F)(F)F)cc(C(F)(F)F)c2)nc2cc(F)ccc2c1N1CC(C)(C)c2ccc(N3CCOCC3)cc21 [2-(3,5-bis(trifluoromethyl)phenyl)-4-(3,3-dimethyl-6-(4-morpholinyl)-2,3-dihydro-1H-indol-1-yl)-7-fluoro-3-methylquinoline]",3080
20,"Cc1c(-c2cc(F)cc(F)c2)nc2cnccc2c1N1CC(C)(C)c2ncc(N3CCOCC3)cc21 [2-(3,5-difluorophenyl)-4-(3,3-dimethyl-6-(4-morpholinyl)-2,3-dihydro-1H-pyrrolo[3,2-b]pyridin-1-yl)-3-methyl-1,7-naphthyridine]",2.36
21,"Cc1c(-c2cc(F)cc(F)c2)nc2ncccc2c1N1CC(C)(C)c2ncc(N3CCOCC3)cc21 [2-(3,5-difluorophenyl)-4-(3,3-dimethyl-6-(4-morpholinyl)-2,3-dihydro-1H-pyrrolo[3,2-b]pyridin-1-yl)-3-methyl-1,8-naphthyridine]",3.11
22,"Cc1c(C2CC2)nc2ncccc2c1N1CC(C)(C)c2ncc(N3CCOCC3)cc21 [2-cyclopropyl-4-(3,3-dimethyl-6-(4-morpholinyl)-2,3-dihydro-1H-pyrrolo[3,2-b]pyridin-1-yl)-3-methyl-1,8-naphthyridine]",32
